Data taken from ChEMBL document CHEMBL1155239, “Structure-guided development of selective TbcatB inhibitors” (J Med Chem, 2009).

What was measured:
Trypanosoma brucei = assay: Antitrypanosomal activity against Trypanosoma brucei after 48 hrs; format: functional, organism-based
BJ = assay: Cytotoxicity against human BJ cells after 72 hrs by alamar blue assay; format: ADME, cell-based
HepG2 = assay: Cytotoxicity against human HepG2 cells after 72 hrs by alamar blue assay; format: ADME, cell-based; details: HepG2, 72 h
[1] = Inhibition of Trypanosoma brucei cathepsin B expressed in Pichia pastoris
HEK293 = assay: Cytotoxicity against human HEK293 cells after 72 hrs by alamar blue assay; format: ADME, cell-based; details: HEK293, 72 h
Raji = assay: Cytotoxicity against human Raji cells after 72 hrs by alamar blue assay; format: ADME, cell-based
Procathepsin L = Procathepsin L (Homo sapiens, UniProt P07711); assay: Inhibition of human liver cathepsin L
Rhodesain = Rhodesain (Trypanosoma brucei rhodesiense, UniProt Q95PM0); assay: Inhibition of Trypanosoma brucei rhodesiense rhodesain
Cathepsin B = Cathepsin B (Homo sapiens, UniProt P07858); assay: Inhibition of human liver cathepsin B

Chain of Procathepsin L (P07711 whole entry): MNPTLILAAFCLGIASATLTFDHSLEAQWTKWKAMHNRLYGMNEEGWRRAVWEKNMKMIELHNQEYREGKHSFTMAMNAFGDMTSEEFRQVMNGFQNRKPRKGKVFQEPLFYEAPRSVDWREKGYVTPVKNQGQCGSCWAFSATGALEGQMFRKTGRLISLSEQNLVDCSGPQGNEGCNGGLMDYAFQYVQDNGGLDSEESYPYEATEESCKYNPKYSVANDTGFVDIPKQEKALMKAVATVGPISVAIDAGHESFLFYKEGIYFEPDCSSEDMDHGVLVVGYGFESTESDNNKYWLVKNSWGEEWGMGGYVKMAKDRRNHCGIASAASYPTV
Chain of Rhodesain (Q95PM0 whole entry): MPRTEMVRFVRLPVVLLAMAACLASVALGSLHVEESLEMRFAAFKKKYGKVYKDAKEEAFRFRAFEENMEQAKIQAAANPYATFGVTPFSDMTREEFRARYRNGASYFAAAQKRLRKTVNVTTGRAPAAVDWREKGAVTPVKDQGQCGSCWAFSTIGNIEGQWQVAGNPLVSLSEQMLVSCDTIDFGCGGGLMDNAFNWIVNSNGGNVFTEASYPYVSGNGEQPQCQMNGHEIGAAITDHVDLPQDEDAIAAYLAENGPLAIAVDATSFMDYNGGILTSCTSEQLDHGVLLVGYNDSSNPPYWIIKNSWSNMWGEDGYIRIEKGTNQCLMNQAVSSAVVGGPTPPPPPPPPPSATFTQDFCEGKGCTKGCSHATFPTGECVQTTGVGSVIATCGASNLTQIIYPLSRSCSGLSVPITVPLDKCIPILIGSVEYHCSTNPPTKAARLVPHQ

Row | Structure (SMILES) | EC50 (Trypanosoma brucei) [nM] | EC50 (BJ) [nM] | EC50 (HepG2) [nM] | IC50 [1] [nM] | EC50 (HEK293) [nM] | EC50 (Raji) [nM] | IC50 (Procathepsin L) [nM] | IC50 (Rhodesain) [nM] | IC50 (Cathepsin B) [nM]
1 | N#Cc1nc(NCc2cccc(-c3cc(Cl)cc(Cl)c3)c2)c2ncn(CCCO)c2n1 | 3300 | > 10000 | > 10000 | 1200 | > 10000 | > 10000 | 900 | 1100 | 
2 | N#Cc1nc(NCc2cccc(-c3ccc(Cl)c(Cl)c3)c2)c2ncn(CCCO)c2n1 | 2300 | > 10000 | > 10000 | 1200 | > 10000 | > 10000 | 1600 | 900 | 
3 | CN(C)c1cccc(-c2cccc(CNc3nc(C#N)nc4c3ncn4CCCO)c2)c1 |  | > 10000 | > 10000 | 1200 | > 10000 | > 10000 | 1400 | 900 | 
4 | COC(=O)c1cccc(-c2cccc(CNc3nc(C#N)nc4c3ncn4CCCO)c2)c1 | 2700 | > 10000 | > 10000 |  | > 10000 | > 10000 |  | 500 | 
5 | C=Cc1cccc(-c2cccc(CNc3nc(C#N)nc4c3ncn4CCCO)c2)c1 |  | > 10000 | > 10000 | 800 | > 10000 | > 10000 |  |  | 
6 | C=Cc1ccc(-c2cccc(CNc3nc(C#N)nc4c3ncn4CCCO)c2)cc1 |  | > 10000 | > 10000 | 900 | > 10000 | > 10000 | 1100 | 1800 | 
7 | N#Cc1nc(NCc2cccc(-c3ccc4ccccc4c3)c2)c2ncn(CCCO)c2n1 | 1100 | > 10000 | > 10000 | 230 | > 10000 | > 10000 | 800 | 700 | 
8 | N#Cc1nc(NCc2cccc(-c3ccco3)c2)c2ncn(CCCO)c2n1 | 1600 | > 10000 | > 10000 | 1000 | > 10000 | > 10000 | 840 | 310 | 
9 | N#Cc1nc(NCc2cccc(-c3ccsc3)c2)c2ncn(CCCO)c2n1 | 430 | > 10000 | > 10000 | 370 | > 10000 | > 10000 | 480 | 240 | 
10 | N#Cc1nc(NCc2cccc(-c3ccoc3)c2)c2ncn(CCCO)c2n1 | 560 | > 10000 | > 10000 | 460 | > 10000 | > 10000 | 600 | 30 | 
11 | CC(C)Oc1c(Br)cccc1-c1cccc(CNc2nc(C#N)nc3c2ncn3CCCO)c1 |  | > 10000 | > 10000 | 900 | > 10000 | > 10000 | 1300 | 1500 | > 50000
12 | Cc1ccccc1-c1cccc(CNc2nc(C#N)nc3c2ncn3CCCO)c1 |  |  |  | 390 |  |  | 1100 | > 50000 | 
13 | N#Cc1nc(NCc2cccc(-c3ccc(Cl)cc3)c2)c2ncn(CCCO)c2n1 |  |  |  |  |  |  | 1900 | 1400 | 
14 | COc1ccc(-c2cccc(CNc3nc(C#N)nc4c3ncn4CCCO)c2)cc1 |  | > 10000 | > 10000 | 1200 | > 10000 | > 10000 | 1100 | 800 | 
15 | N#Cc1nc(NCc2cccc(-c3ccccc3)c2)c2ncn(CCCO)c2n1 | 1400 | > 10000 | > 10000 | 1800 | > 10000 | > 10000 | 800 | 700 | 
16 | N#Cc1nc(NCc2cccc(-c3cccnc3)c2)c2ncn(CCCO)c2n1 | 1400 | > 10000 | > 10000 | 600 | > 10000 | > 10000 | 1600 | 260 | 

Row | Structure (SMILES) | EC50 (Trypanosoma brucei) [nM] | EC50 (BJ) [nM] | EC50 (HepG2) [nM] | IC50 [1] [nM] | EC50 (HEK293) [nM] | EC50 (Raji) [nM] | IC50 (Procathepsin L) [nM] | IC50 (Rhodesain) [nM] | IC50 (Cathepsin B) [nM]
17 | N#Cc1nc(NCc2cccc(-c3cccs3)c2)c2ncn(CCCO)c2n1 |  | > 10000 | > 10000 | 600 | > 10000 | > 10000 | 900 | 800 | 
18 | N#Cc1nc(NCc2cccc(-c3ccccc3Cl)c2)c2ncn(CCCO)c2n1 |  |  |  | 1300 |  |  | 16000 | 20000 | 
19 | N#Cc1nc(NCc2cccc(-c3cccc(Cl)c3)c2)c2ncn(CCCO)c2n1 | 3700 | > 10000 | > 10000 | 800 | > 10000 | > 10000 | 700 | 1200 | 
20 | N#Cc1nc(NCc2cccc(-c3c(F)c(F)c(F)c(F)c3F)c2)c2ncn(CCCO)c2n1 |  | > 10000 | > 10000 | 900 | > 10000 | > 10000 | 2700 | 5200 | 
21 | N#Cc1nc(NCc2cccc(-c3ccc4[nH]ccc4c3)c2)c2ncn(CCCO)c2n1 | 380 | > 10000 | > 10000 | 250 | > 10000 | > 10000 | 190 | 500 | 
22 | CC(C)c1ccccc1-c1cccc(CNc2nc(C#N)nc3c2ncn3CCCO)c1 | 630 |  |  | 310 |  |  | 900 |  | 
23 | CC(=O)Nc1cccc(-c2cccc(CNc3nc(C#N)nc4c3ncn4CCCO)c2)c1 | 4100 | > 10000 | > 10000 | 1600 | > 10000 | > 10000 |  |  | 
24 | COc1ncc(-c2cccc(CNc3nc(C#N)nc4c3ncn4CCCO)c2)c(OC)n1 | 5900 | > 10000 | > 10000 | 2900 | > 10000 | > 10000 | 6000 | 4000 | > 15000
25 | COC(=O)c1ccccc1-c1cccc(CNc2nc(C#N)nc3c2ncn3CCCO)c1 | 700 |  |  | 1000 |  |  | 1400 | > 10000 | > 15000
26 | N#Cc1nc(NCc2cccc(-c3ccccc3C(F)(F)F)c2)c2ncn(CCCO)c2n1 |  | > 10000 | > 10000 | 280 | > 10000 | > 10000 | 1500 | 8000 | 
27 | COC(=O)c1ccc(-c2cccc(CNc3nc(C#N)nc4c3ncn4CCCO)c2)cc1 | 4000 | > 10000 | > 10000 | 1600 | > 10000 | > 10000 | 1800 | 1200 | 
28 | N#Cc1nc(NCc2cccc(-c3cc4ccccc4n3S(=O)(=O)c3ccccc3)c2)c2ncn(CCCO)c2n1 |  | > 10000 | > 10000 | > 15000 | > 10000 | > 10000 | 1800 | 9000 | > 50000
29 | Cc1cccc(C)c1-c1cccc(CNc2nc(C#N)nc3c2ncn3CCCO)c1 |  |  |  | 270 |  |  | 1000 | > 15000 | 
30 | N#Cc1nc(NCc2cccc(-c3cn(S(=O)(=O)c4ccccc4)c4ccccc34)c2)c2ncn(CCCO)c2n1 | 2000 | > 10000 | > 10000 | > 15000 | > 10000 | > 10000 | 1000 | 2000 | > 50000
31 | N#Cc1nc(NCc2cccc(-c3ccc4cc[nH]c4c3)c2)c2ncn(CCCO)c2n1 | 800 | > 10000 | > 10000 | 240 | > 10000 | > 10000 | 460 | 260 | 
